“Also recorded” adds a separate entry of the source. Where two headings read alike, the source gives them in different places.

Consider three compounds from EP4763206A1, “AGENT FOR SUPPRESSING AGGREGATION OF TDP-43, AGENT FOR SUPPRESSING CELL DEATH OF CELLS IN WHICH TDP-43 IS OVEREXPRESSED, AND AGENT FOR PREVENTING OR TREATING DISEASES ASSOCIATED WITH AGGREGATION OF TDP-43” (Socium Inc., priority 2023, dated 2025).

The test system of data set [1] is Neuro2a cells. Briefly: Cell death suppression by D-cycloserine combined with edaravone in TDP-43-transfected Neuro2a cells (Example 1). The following applies: Mus musculus, N2a. The class given is cell-based. The method, then: Neuro2a cells were seeded on a dish. On the first day after seeding, differentiation into neurons was initiated. On the fourth day after seeding, cells were transfected with the TDP-43 gene. […] The proportion of dead cells was evaluated 7 days after the cells were transfected with the TDP-43 gene. […] Here, the relative viability indicates the proportion of the number of viable cells overexpressing TDP-43 based on 100% of the number of viable cells not overexpressing TDP-43. […] The CI was calculated using the following formula. […] CI=1 indicates an additive effect, CI>1 indicates an antagonistic effect, and CI<1 indicates a synergistic effect.

The test system of data set [2] is Neuro2a cells. Briefly: Suppression of cell death in TDP-43-transfected Neuro2a cells (Reference Example 2). It counts as cell-based, Mouse. The following applies: 10 to 10,000 nmol/L added 5 hours after transfection; evaluated 7 days after transfection (Figures 3, 4). The method, then: Neuro2a cells were seeded on a dish. On the first day after seeding, differentiation into neurons was initiated. On the fourth day after seeding, cells were transfected with the TDP-43 gene. […] In addition, as a control, 10 nmol/L, 50 nmol/L, 100 nmol/L, 500 nmol/L, 1,000 nmol/L, 5,000 nmol/L, or 10,000 nmol/L of ropinirole was added to a culture medium.
The proportion of dead cells was evaluated 7 days after the cells were transfected with the TDP-43 gene.

Data set [3] concerns TDP-43. Briefly: Soluble/insoluble TDP-43 fractions in motor neurons derived from iPS cells of ALS patients, western blot (Reference Example 4). The class given is cell-based, human. The following applies: 10 µmol/L; for bands for insoluble fractions of TDP-43: cultured for 20 days (Figure 7); for average proportion of insoluble fractions of TDP-43: cultured for 20 days, three experiments, untreated ALS about 46.1%, healthy about 7.4%. For orientation: In western blotting, separated proteins are transferred to a membrane and probed.

Data set [4] in a line: Reported human pharmacokinetics of D-cycloserine. It counts as in vivo, humans. The following applies: estimated; 15 mg orally administered twice daily.
Data set [5] relates to TDP-43. Briefly: Soluble/insoluble TDP-43 fractions in motor neurons derived from iPS cells of healthy subjects, western blot (Reference Example 4). It counts as cell-based, human. The following applies: 10 µmol/L, cultured for 20 days (Figure 7). The method, then:
100 µL of an EHS-gel basement membrane matrix (commercially available from FUJIFILM Wako Pure Chemical Corporation) was added to 12.5 mL of DMEM (Dulbecco's Modified Eagle Medium, commercially available from FUJIFILM Wako Pure Chemical Corporation) and mixed, and the mixture was added to a 24-well plate at 600 µL per well. The plate was left at room temperature for 2 hours, and the solution was then removed from the wells. Next, 600 µL of DMEM was added to each well, and the plate was left at room temperature for 2 hours.
Motor neurons derived from iPS cells of healthy subjects and motor neurons derived from iPS cells of ALS patients were obtained from iXCells Biotechnologies. The motor neurons were quickly thawed in a thermostatic oven at 37°C and suspended in a motor neuron maintenance culture medium (iXCells Biotechnologies). […]
The soluble protein fractions and the insoluble protein fractions were subjected to SDS-PAGE, and the proteins were transferred to a PVDF membrane. […] Next, the PVDF membrane was washed three times with a buffer solution, 1 mL of a luminescence reagent (ImmunoStar LD, commercially available from FUJIFILM Wako Pure Chemical Corporation) was then used to induce luminescence from the labeled secondary antibodies, and the PVDF membrane was imaged.

For data set [6] the following is noted: cited from earlier work.
The conditions of data set [7]: cited from earlier work. This is another data set of the same source.
Data set [8] deals with TDP-43. Briefly: Soluble/insoluble TDP-43 fractions in TDP-43-transfected Neuro2a cells, western blot (Reference Example 3). The class given is cell-based, Mouse. To be noted: 10 µmol/L added 6 hours after transfection; for number of soluble fractions versus insoluble fractions of TDP-43: cultured for 12 hours (Figure 5); for proportion of insoluble fractions based on total of soluble and insoluble fractions of TDP-43: cultured for 12 hours (Figure 6). The method, then:
Mouse neuroblastoma (Neuro2a) cells were seeded on a dish. The Neuro2a cells were cultured in a culture medium containing DMEM+10% FBS at 37°C in the presence of 5% CO2. On the first day after seeding, differentiation into neurons was initiated. Differentiation into neurons was performed in a culture medium containing DMEM+2% FBS+20 µmol/L retinoic acid. On the fourth day after seeding, cells were transfected with synthesized TDP-43 mRNA by a lipofection method. Cells were sampled at 6 hours, 9 hours, 12 hours, 15 hours, 18 hours, and 21 hours after transfection. […] For sampling, cells were lysed in an RIPA buffer and centrifuged at 22,000×g for 30 minutes at 4°C, the supernatant was used as the soluble fraction, the precipitate was used as the insoluble fraction, and equal volumes of a 2×SDS sample buffer were added to the respective fractions and heated at 95°C for 5 minutes to prepare electrophoresis samples. The electrophoresis samples were subjected to electrophoresis using a polyacrylamide gel, TDP-43 was then transferred to a PVDF membrane. TDP-43 was detected through chemiluminescence using anti-TDP-43 antibodies as primary antibodies and HRP-conjugated anti-rabbit antibodies as secondary antibodies. […] The insoluble fractions of TDP-43 indicate the aggregation of TDP-43.
Neuro2a cells were seeded on a dish. On the first day after seeding, differentiation into neurons was initiated. On the fourth day after seeding, cells were transfected with the TDP-43 gene.

Take `N[C@@H]1CONC1=O` [D-cycloserine, (4R)-4-Amino-1,2-oxazolidin-3-one]: the EC50 with Neuro2a cells [1] (read-out: EC50 of the cell death suppressory effect of D-cycloserine, at 0 nmol/L of edaravone) came to 151 nM; in the data set on Neuro2a cells [1] (read-out: EC50 of the cell death suppressory effect of D-cycloserine, at 10 nmol/L of edaravone) it was 149 nM; in the data set on Neuro2a cells [1] (read-out: EC50 of the cell death suppressory effect of D-cycloserine, at 30 nmol/L of edaravone), 135 nM; in the data set with Neuro2a cells [1] (read-out: EC50 of the cell death suppressory effect of D-cycloserine, at 100 nmol/L of edaravone), 119 nM; in the data set with Neuro2a cells [1] (read-out: EC50 of the cell death suppressory effect of D-cycloserine, at 300 nmol/L of edaravone), 107 nM; with Neuro2a cells [1] (read-out: EC50 of the cell death suppressory effect of D-cycloserine, at 1,000 nmol/L of edaravone), 87.6 nM. For the same compound, in the data set on Neuro2a cells [2], the “cell death in cells transfected with the TDP-43 gene” value is on record as “cell death was inhibited; also recorded: exhibited an effect of inhibiting cell death in a concentration-dependent manner”. Besides, the “bands for insoluble fractions of TDP-43” value in the data set on TDP-43 [3] and in the data set on TDP-43 [5] was “bands for insoluble fractions were unclear” each time. The “average proportion of insoluble fractions of TDP-43” value with TDP-43 [3] is “about 17.4%”. For the same compound, in data set [4], the trough value is on record as above 128 nmol/L. Further, the Cmax in data set [6] (15 mg orally administered to humans, read-out: maximum blood concentration (Cmax)) is around 5.6 µM. The half-life entry in data set [6] (in vivo) was “about 10 hours”. The side effects entry is “headaches” in data set [7] (150 mg administered to humans); “serious side effects such as epileptiform seizure and mental confusion” in data set [7] (250 mg administered to humans to treat tuberculosis). The “number of soluble fractions versus insoluble fractions of TDP-43” value in the data set with TDP-43 [8] is “the number of soluble fractions of TDP-43 was larger than the number of insoluble fractions of TDP-43”. In addition, the “proportion of insoluble fractions based on total of soluble and insoluble fractions of TDP-43” value in the data set on TDP-43 [8] is “less than half”.
As for `N[C@H]1CONC1=O` [L-cycloserine, (4S)-4-amino-1,2-oxazolidin-3-one], the “cell death in cells transfected with the TDP-43 gene” value in the data set with Neuro2a cells [2] is on record as “exhibited an effect of inhibiting cell death in a concentration-dependent manner”. Moreover, in the data set on TDP-43 [8], the “number of soluble fractions versus insoluble fractions of TDP-43” value is on record as “the number of soluble fractions of TDP-43 was larger than the number of insoluble fractions of TDP-43”; the “proportion of insoluble fractions based on total of soluble and insoluble fractions of TDP-43” value is “less than half”.
For `CCCN(CCC)CCc1cccc2c1CC(=O)N2` [ropinirole], in the data set on TDP-43 [3], the “bands for insoluble fractions of TDP-43” value is reported as “bands for insoluble fractions were unclear” and the “average proportion of insoluble fractions of TDP-43” value is on record as “about 19.3%”. Moreover, in the data set on TDP-43 [5], the “bands for insoluble fractions of TDP-43” value is listed as “bands for insoluble fractions were unclear”.
